# Experimental data as given in patent US20260176319A1, “PEPTIDE ANALOGS AND METHODS OF USING THE SAME” (Kallyope, Inc., priority 2024, published 2026).
# Where two headings read alike, the source gives them in different places. Starred links: 1 amine or outer side, 2 acyl side, 3 side chain; linkers in the order of their positions; H or OH if unused. Non-standard residues stand in square brackets, D forms with d. Residues, ends and D or L forms follow the SMILES beside them. *: point of attachment. Trp(7-Me) = Cc1cccc2c(C[C@H](N)C(=O)O)c[nH]c12; C20 diacid = O=C(O)CCCCCCCCCCCCCCCCCCC(=O)*; γGlu = O=C(O)[C@H](CCC(=O)[*:2])N[*:1]; NMeH = CN[C@@H](Cc1c[nH]cn1)C(=O)O; Nle = CCCC[C@H](N)C(=O)O; β3hA = C[C@H](N)CC(=O)O; AEEA = NCCOCCOCC(=O)O; βAla = NCCC(=O)O
# Tests used:
# [1] = Pharmacokinetics after intravenous peptide administration in mice; design: species or system C57BL/6 mice; details: in vivo
# Method: GPR-10 and peptides were dosed IV at 2 mg/kg as a formulation of 0.4 mg/mL in […]+65% water (pH 6-7).
# [2] = Food intake and body weight after subcutaneous administration in mice, 16 hours (Example A-2b); type: in vivo; details: male C57BL/6J mice, single subcutaneous dose, peptide 500 nmol/kg, high fat diet
# From the text: Male C57BL/6J mice, approximately 10 weeks old (Jackson Laboratory), were group housed in a 12-h light cycle room (6:00 AM on, 6:00 PM off) upon arrival and acclimated to the facility for a minimum of 1 week prior to the study. Animals were provided standard rodent chow (PicoLab Rodent Diet, 5053) ad libitum. Animals were single caged for a minimum of 3 days prior to the study. During the period prior to the study day, mice were exposed to one pellet of high fat diet (Research Diets D12492i) to avoid any effects of novelty in the study. On three separate days during this run-in period, mice were given one dose of phosphate-buffered saline (PBS; 5 mL/kg) by subcutaneous injection to acclimate them to the procedure. For baseline measures, pre-weighed meals of standard rodent chow were provided to each animal following acclimation dosing at 3:30 PM, and body weight was recorded. The next morning at 9:30 AM, food intake and body weight measurements were recorded at 16 hours following the presentation of the pre-weighed meal. These measurements and the resulting body weight changes were then used to assign mice to balanced cohorts. On the day of the study, mice were weighed and given a subcutaneous dose of either vehicle (PBS, 5 mL/kg; pH 5.0-8.5) or a peptide of the disclosure (500 nmol/kg; pH 5.0-8.5). Following dosing, a pre-weighed high fat diet was provided. Food intake and body weight measurements were taken at 16 hours following the provision of the pre-weighed high fat diet. […] Table 6 below describes the percent reduction in food intake and the percent body weight (BW) change with peptides as measured relative to the vehicle group.
# human GRP receptors = target: T1, human GRP receptors (Homo sapiens, UniProt P30550); experiment: IP1 GRPR activity: HTRF IP1-Gq assay in U2OS cells stably expressing human GRP receptors; type: cell-based; details: 90 minutes incubation, read-out: hIP1 GRPR EC50
# T1 construct: host or cells: U2OS
# Method: U2OS cells stably expressing human GRP receptors (DiscoverX, #93-0229C3) were cultured according to manufacturer's instructions. Cells were cultured to […], then collected using AccuTase (Innovative Cell Technologies, #AT104). Cells were washed and plated on a poly-D-lysine-coated 384-well plate (ThermoFisher, #A3890401) at a density of 2,500 cells/well in […] assay buffer (AssayComplete Cell Plating 5 Reagent, DiscoverX #93-0563R5), then incubated overnight at 37° C. and 5% C02. The following morning, a homogenous time-resolved fluorescence (HTRF) assay was performed in a 384-well plate format using the IP1-Gq assay kit (Cisbio, 62IPAPEB). Test compounds were made as a stock in DMSO, then serially diluted to generate 10-point dose response curves in IP1 stimulation buffer. Five microliters of the prepared compounds were then added to the plate containing cells and assay buffer in duplicate, and the cells were incubated at 37° C. and 5% CO2 for 90 minutes. Following compound incubation, […] of IP1 lysis/detection buffer (prepared according to manufacturer's instructions) was added to each well, and the plates were incubated at room temperature for 1 hour. HTRF signals were measured using a plate reader (ClarioSTAR), calculating the ratio between emissions at 665 nm and 620 nm (HTRF ratio). HTRF ratio for positive (Max, […]; SEQ ID NO. 45) and negative (Min, DMSO) controls were used to normalize HTRF data and generate values for % activity. EC50 and Max activity values were determined using a standard 4-parameter fit using GraphPad Prism.
# physchem = type: physicochemical; details: pH 8
# Method: Solubility was measured in an appropriate buffer as follows. A known amount of compound, e.g., 20 mg, was placed in a vessel equipped with a stirring bar. A measured amount of buffer (e.g., 200-400 μL of 200 mM phosphate buffer) was added, and in some cases, additional surfactants, e.g., polysorbate 80 (PS80), polyethylene glycol (15)-hydroxystearate (Solutol® HS15), etc., were added. A measured amount of purified water (e.g., 1.6 mL) was added, and the pH was adjusted to the desired pH, e.g., pH 8, by addition of 0.5 N aqueous NaOH or 0.5 N aqueous HCl. The volume of added acid or base was recorded. The mixture was stirred at 300 rpm for 10 min. Additional purified water was added to reach a given volume, e.g., 4 mL, of solution. After stirring the sample at 300 rpm at room temperature for 1 h or 24 h, the appearance was observed and the pH measured.
# [3] = mouse, C57BL/6 mice, IV 2 mg/kg, formulation of 0.4 mg/mL, read-out: CL
# [4] = mouse, C57BL/6 mice, IV 2 mg/kg, formulation of 0.4 mg/mL, read-out: T1/2 (converted)
# T1 sequence (P30550 whole entry): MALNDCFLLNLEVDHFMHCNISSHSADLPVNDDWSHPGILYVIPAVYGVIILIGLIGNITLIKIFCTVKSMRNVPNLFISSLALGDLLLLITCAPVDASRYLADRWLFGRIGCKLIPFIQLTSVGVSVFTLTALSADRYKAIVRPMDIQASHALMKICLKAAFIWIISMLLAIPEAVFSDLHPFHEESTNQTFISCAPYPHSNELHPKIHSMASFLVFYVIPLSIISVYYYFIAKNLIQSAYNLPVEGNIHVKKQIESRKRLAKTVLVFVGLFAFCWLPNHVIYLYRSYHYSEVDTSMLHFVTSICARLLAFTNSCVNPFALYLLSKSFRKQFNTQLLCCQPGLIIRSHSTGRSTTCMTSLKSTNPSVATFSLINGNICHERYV
Compound,"clearance [1, 3] [mL/min/kg]","half-life [1, 4] [h]",% Body Weight Change at 16 hours (compared with vehicle) [2] [%],% Reduction in Cumulative Food Intake over 16 hours (compared with vehicle) [2] [%],"clearance ([1]; C57BL/6, mouse, iv, 2 mg/kg) [mL/min/kg]","half-life ([1]; C57BL/6, mouse, iv, 2 mg/kg) [h]",EC50 (human GRP receptors) [nM],solubility at 24 h (physchem) [µg/mL]
"CCCC[C@H](NC(=O)[C@H](CC(C)C)NC(=O)[C@H](Cc1c[nH]cn1)NC(=O)CCNC(=O)[C@@H](NC(=O)[C@H](C)NC(=O)[C@H](Cc1c[nH]c2ccccc12)NC(=O)[C@H](Cc1c[nH]cn1)NC(=O)[C@H](CCC(N)=O)NC(=O)CNC(=O)COCCOCCNC(=O)COCCOCCNC(=O)CC[C@H](NC(=O)CCCCCCCCCCCCCCCCCCC(=O)O)C(=O)O)C(C)C)C(N)=O [Peptide 241, Eicosanedioyl-γGlu-OEG-OEG-Gly-Gln-His-Trp-Ala-Val-β-Ala-His-Leu-Nle-NH2] ({C20 diacid-γGlu-AEEA-AEEA}-GQHWAV[βAla]HL[Nle]-NH2)",0.23,7,−10,74,,,,
"CCCC[C@H](NC(=O)[C@H](CC(C)C)NC(=O)[C@H](Cc1c[nH]cn1)NC(=O)CCNC(=O)[C@@H](NC(=O)[C@H](C)NC(=O)[C@H](Cc1c[nH]c2c(C)cccc12)NC(=O)[C@H](Cc1c[nH]cn1)NC(=O)[C@H](CCCNC(=N)N)NC(=O)CNC(=O)COCCOCCNC(=O)COCCOCCNC(=O)CC[C@H](NC(=O)CCCCCCCCCCCCCCCCCCC(=O)O)C(=O)O)C(C)C)C(N)=O [Peptide 242, Eicosanedioyl-γGlu-OEG-OEG-Gly-Arg-His-7MethylTrp-Ala-Val-β-Ala-His-Leu-Nle-NH2] ({C20 diacid-γGlu-AEEA-AEEA}-GRH[Trp(7-Me)]AV[βAla]HL[Nle]-NH2)",,,−9,55,,,,
"CCCC[C@H](NC(=O)[C@H](CC(C)C)NC(=O)[C@H](Cc1c[nH]cn1)NC(=O)C[C@H](C)NC(=O)[C@@H](NC(=O)[C@H](C)NC(=O)[C@H](Cc1c[nH]c2c(C)cccc12)NC(=O)[C@H](Cc1c[nH]cn1)NC(=O)[C@H](CCC(=O)O)NC(=O)CNC(=O)COCCOCCNC(=O)COCCOCCNC(=O)CC[C@H](NC(=O)CC[C@H](NC(=O)CCCCCCCCCCCCCCCCCCC(=O)O)C(=O)O)C(=O)O)C(C)C)C(N)=O [Peptide 247, Eicosanedioyl-γGlu-γGlu-OEG-OEG-Gly-Glu-His-7MeTrp-Ala-Val-BABA-His-Leu-Nle-NH2] ({C20 diacid-γGlu-γGlu-AEEA-AEEA}-GEH[Trp(7-Me)]AV[β3hA]HL[Nle]-NH2)",,,−11,65,0.18,7.5,1.8,4200
"CCCC[C@H](NC(=O)[C@H](CC(C)C)NC(=O)[C@H](Cc1c[nH]cn1)NC(=O)CCNC(=O)[C@@H](NC(=O)[C@H](C)NC(=O)[C@H](Cc1c[nH]c2c(C)cccc12)NC(=O)[C@H](Cc1c[nH]cn1)NC(=O)[C@H](CCC(=O)O)NC(=O)[C@@H](CO)NC(=O)[C@H](CCC(=O)O)NC(=O)COCCOCCNC(=O)COCCOCCNC(=O)CC[C@H](NC(=O)CC[C@H](NC(=O)CCCCCCCCCCCCCCCCCCC(=O)O)C(=O)O)C(=O)O)C(C)C)C(N)=O [Peptide 248, Eicosanedioyl-γGlu-γGlu-OEG-OEG-Glu-D-Ser-Glu-His-7MeTrp-Ala-Val-β-Ala-His-Leu-Nle-NH2] ({C20 diacid-γGlu-γGlu-AEEA-AEEA}-E[dS]EH[Trp(7-Me)]AV[βAla]HL[Nle]-NH2)",0.12,9.7,−9,54,,,,
"CCCC[C@H](NC(=O)[C@H](CC(C)C)NC(=O)[C@H](Cc1c[nH]cn1)NC(=O)CCNC(=O)[C@@H](NC(=O)[C@H](C)NC(=O)[C@H](Cc1c[nH]c2c(C)cccc12)NC(=O)[C@H](Cc1c[nH]cn1)NC(=O)[C@H](CCC(=O)O)NC(=O)CNC(=O)[C@H](CO)NC(=O)COCCOCCNC(=O)COCCOCCNC(=O)CC[C@H](NC(=O)CC[C@H](NC(=O)CCCCCCCCCCCCCCCCCCC(=O)O)C(=O)O)C(=O)O)C(C)C)C(N)=O [Peptide 255, Eicosanedioyl-γGlu-Glu-OEG-OEG-Ser-Gly-Glu-His-7MeTrp-Ala-Val-β-Ala-His-Leu-Nle-NH2] ({C20 diacid-γGlu-γGlu-AEEA-AEEA}-SGEH[Trp(7-Me)]AV[βAla]HL[Nle]-NH2)",0.09,9.4,,,,,6.9,
"CCCC[C@H](NC(=O)[C@H](CC(C)C)NC(=O)[C@H](Cc1c[nH]cn1)N(C)C(=O)C[C@H](C)NC(=O)[C@@H](NC(=O)[C@H](C)NC(=O)[C@H](Cc1c[nH]c2c(C)cccc12)NC(=O)[C@H](Cc1c[nH]cn1)NC(=O)[C@H](CCC(=O)O)NC(=O)[C@H](CO)NC(=O)COCCOCCNC(=O)COCCOCCNC(=O)CC[C@H](NC(=O)CC[C@H](NC(=O)CCCCCCCCCCCCCCCCCCC(=O)O)C(=O)O)C(=O)O)C(C)C)C(N)=O [Peptide 277, Eicosanedioyl-γGlu-γGlu-OEG-OEG-Ser-Glu-His-7MeTrp-Ala-Val-BABA-NMeHis-Leu-Nle-NH2] ({C20 diacid-γGlu-γGlu-AEEA-AEEA}-SEH[Trp(7-Me)]AV[β3hA][NMeH]L[Nle]-NH2)",,,−12,69,,,,
"CCCC[C@H](NC(=O)[C@H](CC(C)C)NC(=O)[C@H](Cc1c[nH]cn1)N(C)C(=O)C[C@H](C)NC(=O)[C@@H](NC(=O)[C@H](C)NC(=O)[C@H](Cc1c[nH]c2c(C)cccc12)NC(=O)[C@H](Cc1c[nH]cn1)NC(=O)[C@H](CC(=O)O)NC(=O)CNC(=O)COCCOCCNC(=O)COCCOCCNC(=O)CC[C@H](NC(=O)CC[C@H](NC(=O)CCCCCCCCCCCCCCCCCCC(=O)O)C(=O)O)C(=O)O)C(C)C)C(N)=O [Peptide 278, Eicosanedioyl-γGlu-γGlu-OEG-OEG-Gly-Asp-His-7MeTrp-Ala-Val-BABA-NMeHis-Leu-Nle-NH2] ({C20 diacid-γGlu-γGlu-AEEA-AEEA}-GDH[Trp(7-Me)]AV[β3hA][NMeH]L[Nle]-NH2)",,,−12,63,,,10.8,
